# US6251950A, “Aliphatic propargylamines as cellular rescue agents” (University of Saskatchewan, priority 1998, dated 2001)
# Like-named read-outs stand apart in the source and are kept apart here.
# How the values were obtained:
# HSP70 = test: Kainate-induced HSP70 expression in hippocampal CA1 field; assay type: in vivo, rat
# Method: (§1) The levels of both proteins were measured 24 h after a single injection of kainate (10 mg/Kg,i.p). The levels (assessed by quantitative immunohistochemical imaging) can be seen in Table 5.
# (§2) Values are means ± sem (n = 5)
# (§3) Kainate (10 mg/Kg, i.p.); Rats with seizures between stages IV severe to V
# (§4) severe were used. R-2HPA (0.25 mg/Kg, s.c.) was administered 4 h after
# (§5) kainate injection; HSP70 and c-Fos expression were assessed 24 h after
# (§6) kainate treatment (for details of method please see Zhang et al, 1996).
# (§7) Statistics were performed using ANOVA followed by Newman-Keuls multiple
# c-Fos = test: Kainate-induced delayed c-Fos expression in hippocampal CA1 field; assay type: in vivo, rat
# Method: as §1, §2, §3, §4, §5, §6, §7
# [1] = system: cerebellar granule cells (CGC); test: in vitro; assay type: cell-based, Wistar rat
# Description: (§8) Cultures of cerebellar granule cells (CGC) can be induced into apoptosis by the addition of a high concentration of cytosine arabinoside (Ara C) (Dessi et al., 1995) and it has been shown that this is a p53 dependent apoptosis (Enokido et al, 1996). We have measured the antiapoptotic effect of N-(2-heptyl)propargylamine (2HPA) using this system and compared the results to those obtained with previously known aliphatic methyl propargylamines and deprenyl.
# (§9) Cultures of CGC were obtained from 6-8 day old Wistar rat pups. Cultures were grown on glass in 35 mm petri dishes for 3 days and then used for experiments. 20 μl aliquots of drug solutions (Ara C, anti-apoptotic drugs, drug vehicles) were added to the medium of the cultures. 24 Hours later the cultures were fixed with FAM, and stained with bis-benzamide. Normal and apoptotic nuclei were counted to a total of 90-120 cells per culture. […] Concentrations in excess of 150 μM caused detachment of the cultures.
# (§10) Compounds were added at the following concentrations: Ara C, 100 μM,
# [2] = biological target: T1, rat liver mitochondrial monoamine oxidase B (Rattus norvegicus, UniProt P19643); test: biochemical; assay type: biochemical; details: for Comparison to most effective MAO-B inhibitor in group: in vitro, relative to most effective inhibitor in group; for IC50: substrate PE (β-phenylethylamine) 1.9 × 10^-5 M, average of at least 2 independent triplicate experiments
# T1 sequence (P19643 1-520): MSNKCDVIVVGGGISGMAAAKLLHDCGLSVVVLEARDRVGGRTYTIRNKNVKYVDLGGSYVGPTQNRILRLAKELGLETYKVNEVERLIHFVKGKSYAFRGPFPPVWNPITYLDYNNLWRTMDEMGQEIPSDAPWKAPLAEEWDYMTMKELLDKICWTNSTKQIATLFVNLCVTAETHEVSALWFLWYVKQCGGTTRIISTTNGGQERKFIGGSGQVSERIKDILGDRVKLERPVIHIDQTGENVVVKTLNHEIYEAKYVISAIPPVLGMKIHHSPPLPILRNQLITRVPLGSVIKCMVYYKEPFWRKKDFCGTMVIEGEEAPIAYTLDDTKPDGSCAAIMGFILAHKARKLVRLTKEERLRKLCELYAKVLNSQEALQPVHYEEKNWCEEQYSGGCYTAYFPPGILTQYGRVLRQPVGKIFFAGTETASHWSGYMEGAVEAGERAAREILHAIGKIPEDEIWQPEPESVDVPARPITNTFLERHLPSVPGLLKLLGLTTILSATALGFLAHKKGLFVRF
# Method: Enzyme activity was assessed using a radiometric method as previously described (Yu et al, 1992).
# [3] = system: pyramidal neurons in the hippocampus (CA1 neurons); test: Hypoxia/ischaemia model, CA1 neuron survival; assay type: in vivo, rat; details: for mean survival of CA1 neurons, percentage of vehicle treated controls (Table 2) / response vs control in vivo at 0.1 µmol/kg: 0.1 μmol/kg, vehicle = 100%, ± sem (n = 6-10); for mean survival of CA1 neurons, percentage of vehicle treated controls (Table 2) / response vs control in vivo at 0.1 µmol/kg / activity in the hypoxia/ischaemia model: s.c.; for mean survival of CA1 neurons, percentage of vehicle treated controls (Table 2): **P < 0.01; for response vs control in vivo at 0.1 µmol/kg: *P < 0.05, **P < 0.01, read-out: Percentage survival of CA1 neurones, of vehicle treated controls (Table 4)
# mouse brain MAO-B = biological target: T2, mouse brain MAO-B (Mus musculus, UniProt Q8BW75); test: Inhibition in vivo of brain MAO-B activity after intraperitoneal administration; details: for Comparison to most effective inhibitor: in vivo, relative to R-2HMP; for ED50: mouse, ip, 2 h, read-out: IC50 (mg/Kg) (MAO-B, in vivo)
# T2 construct: Striata were dissected from the brain two hours after i.p. administration of the drugs; from tissue; host or cells: mouse brain striata, dissected two hours after i.p. dosing
# T2 sequence (Q8BW75 1-520): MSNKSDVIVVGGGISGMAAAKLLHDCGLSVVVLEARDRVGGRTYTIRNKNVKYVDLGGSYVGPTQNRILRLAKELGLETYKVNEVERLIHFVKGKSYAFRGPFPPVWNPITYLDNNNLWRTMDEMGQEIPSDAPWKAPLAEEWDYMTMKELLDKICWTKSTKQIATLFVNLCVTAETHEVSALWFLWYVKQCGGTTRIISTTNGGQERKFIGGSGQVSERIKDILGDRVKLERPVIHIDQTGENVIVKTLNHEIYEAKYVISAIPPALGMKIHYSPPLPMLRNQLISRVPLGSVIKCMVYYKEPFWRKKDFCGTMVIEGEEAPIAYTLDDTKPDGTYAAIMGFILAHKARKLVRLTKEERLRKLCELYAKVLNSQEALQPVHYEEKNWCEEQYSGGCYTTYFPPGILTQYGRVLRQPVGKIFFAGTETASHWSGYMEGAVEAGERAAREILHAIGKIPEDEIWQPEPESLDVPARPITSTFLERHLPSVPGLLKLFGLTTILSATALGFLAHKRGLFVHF
# Method: Results are the average of two independent triplicate experiments for each i.p. dose. The doses were 0.5, 1, 2, 5, 10, 20 mg/Kg. Striata were dissected from the brain two hours after i.p. administration of the drugs. MAO-B activities were then determined immediately (Yu et al 1992). The values were estimated from dose-response curves.
# neurons = details: cited from earlier work
# damaged neurons = details: cited from earlier work
# [4] = low concentrations; cited from earlier work
# LNGFR mRNA, PC12 cells = test: LNGFR mRNA levels in PC12 cells (Northern Blot); assay type: cell-based
# Method: The LNGFR mRNA levels were detected by Northern Blots using total RNA from cultured PC12 cells treated with R-2HPA for 24 hours. The blots were hybridized with LNGFR cDNA probe labelled with P^32 dCTP and the auto radiographs were scanned by a Beckman spectrometer.
# hippocampal CA1 neurons = test: Kainic acid-induced neuronal damage; assay type: in vivo, rat; details: in words
# SOD1 mRNA, PC12 cells [5] = test: SOD1 mRNA levels in PC12 cells (Northern Blot); assay type: cell-based
# Method: PC12 cells were used to study the gene regulation of SOD (copper, zinc-dependent type, i.e. SOD1) by (R)-2-heptylpropargylamine (R-2HPA).
# The SOD1 mRNA levels were detected by Northern Blots using total RNA from cultured PC12 cells treated with R-2HPA for 24 hours. The blots were hybridized with SOD1 cDNA probe labelled with P^32 dCTP and the auto radiographs were scanned by a Beckman spectrometer.
# SOD1 mRNA, PC12 cells [6] = details: Li, et al., 1995; cited from earlier work
# in vitro = assay type: cell-based, Wistar rat; details: rat, cerebellar granule cells
# Description: as §8, §9, §10
# [7] = kainate 10 mg/Kg i.p., 24 h, mean ± sem (n = 5)
# [8] = after kainate, rat hippocampal CA1 region
# [9] = kainate 10 mg/Kg i.p., R-2HPA 0.25 mg/Kg s.c. 4 h after, assessed 24 h after kainate, mean ± sem (n = 5), *p < 0.01
compound,measurement,setting,value
"C=C(C)[C@H]1CN[C@H](C(=O)O)[C@H]1CC(=O)O [Kainate, kainic acid]",HSP70 (Kainate alone),HSP70; [7],10.8 ± 3.1
same,Delayed c-Fos (Kainate alone),c-Fos; [7],18.0 ± 4.5
"C#CCN(C)[C@H](C)CCCCC [Example R-2HMP, (R)-N-(2-heptyl)-N-methyl-propargylamine]",blocking of Ara C induced apoptosis,[1]; 10^-7 M (FIG. 1c),completely blocked
same,EC50,"[1]; Rattus norvegicus, inhibition of Ara C induced apoptosis (FIG. 1a, 1b)",1 to 100 nM
same,Percent Apoptotic Nuclei (Control + compound),"[1]; no Ara C, R-2HMP 100 nM, S-2HMP 10 μM, S-2HPA 10 μM, mean ± sem of 4 cultures, control 4.2 ± 0.3",4.8 ± 0.7%
same,Percent Apoptotic Nuclei (Ara C + compound),"[1]; with Ara C 100 μM, R-2HMP 100 nM, S-2HMP 10 μM, S-2HPA 10 μM, mean ± sem of 4 cultures, *P < 0.05 compared to Ara C alone",6.3 ± 0.8%
same,Comparison to most effective MAO-B inhibitor in group,[2],100%
same,IC50,[2],30 nM
same,"mean survival of CA1 neurons, percentage of vehicle treated controls (Table 2)",[3],239 ± 35%
same,response vs control in vivo at 0.1 µmol/kg,"[3]; Rattus norvegicus, Neuron, sc",239 ± 35%
same,ED50,"[3]; Rattus norvegicus, Neuron, sc, subcutaneous administration",0.001 to 0.01 µmol/kg
same,activity in the hypoxia/ischaemia model,[3],shows significant activity
same,Comparison to most effective inhibitor,mouse brain MAO-B; i.p.,100%
same,potency relative to R-deprenyl,"mouse brain MAO-B; mouse brain MAO-B, i.p., fold more potent than R-deprenyl",2.5 fold
same,ED50,"mouse brain MAO-B; PE 1.9 × 10^-5 M, i.p., striata two hours after administration, estimated from dose-response curves",0.2 mg/kg
C#CCNC1CCc2ccccc21 (stereo not drawn) [N-propargyl-1-aminoindan],in vitro neuronal survival after glutamate toxicity,neurons,effective in enhancing the in vitro neuronal survival
CCCC(C(=O)OCCN(CC)CC)(c1ccccc1)c1ccccc1 [proadifen],effect on P450-dependent neurorescue properties of deprenyl,damaged neurons; pretreatment with P450 inhibitor,eliminates the neurorescue properties of deprenyl
C#CCNC(C)Cc1ccccc1 (stereo not drawn) [Desmethyldeprenyl],anti-apoptotic / neurorescue activity,damaged neurons,active as an anti-apoptotic drug
CN[C@@H](C)Cc1ccccc1 [methamphetamine],neurotoxicity,[4],neurotoxic even at quite low concentrations
"C#CCN[C@H](C)CCCCC.Cl [Example R-2HPA, (R)-N-2-Heptylpropargylamine hydrochloride]",HSP70 expression,HSP70; [8],able to block the expression of both genes
same,HSP70 (Kainate + compound),HSP70; [9],4.6 ± 2.0
same,Comparison to most effective MAO-B inhibitor in group,[2],0.8%
same,IC50,[2],4000 nM
same,LNGFR mRNA,"LNGFR mRNA, PC12 cells; PC12 cells",downregulated LNGFR mRNA
same,mrna remaining at 1 µM,"LNGFR mRNA, PC12 cells; Rattus norvegicus, PC-12, 1 μM, 24 hours, Mean ± SD (n = 4), **p < 0.01, control 100 ± 5.4",68.8 ± 16.4%
same,"mean survival of CA1 neurons, percentage of vehicle treated controls (Table 2)",[3],320 ± 48%
same,response vs control in vivo at 0.1 µmol/kg,"[3]; Rattus norvegicus, Neuron, sc",320 ± 48%
same,potency following oral administration versus R-2HMP,[3]; oral,"more potent than its aliphatic methyl propargylamine analogue, R-2HMP"
same,activity in the hypoxia/ischaemia model,[3],Most active
same,delayed c-Fos expression,c-Fos; [8],able to block the expression of both genes
same,Delayed c-Fos (Kainate + compound),c-Fos; [9],4.5 ± 3.7
same,inhibitory effect on mouse brain MAO-B,"mouse brain MAO-B; i.p., compared with R-2HMP",weaker inhibitory effect
same,Comparison to most effective inhibitor,mouse brain MAO-B; i.p.,5%
same,ED50 value fold higher than that of R-2HMP,"mouse brain MAO-B; mouse brain MAO-B, i.p.",20 fold
same,ED50,mouse brain MAO-B,4 mg/kg
same,prevention of kainic acid-induced neuronal damage,hippocampal CA1 neurons,capable of preventing kainic acid-induced neuronal damage
same,SOD1 gene expression,"SOD1 mRNA, PC12 cells [5]; PC12 cells",stimulate SOD1 gene expression
same,"SOD1 mRNA level, % of control at 1 µM","SOD1 mRNA, PC12 cells [5]; Rattus norvegicus, PC-12, 1 μM, 24 hours, Mean ± SD (n = 4), **p < 0.01, control 100 ± 20",184 ± 41%
NGF: NGF,SOD1 mRNA induction (previous findings),"SOD1 mRNA, PC12 cells [6]",can induce SOD1 mRNA in a dose dependent manner
CC(N)Cc1ccccc1 (stereo not drawn) [amphetamine],neurotoxicity,[4],neurotoxic even at quite low concentrations
"Nc1ccn([C@@H]2O[C@H](CO)[C@@H](O)[C@@H]2O)c(=O)n1 [Ara C, cytosine arabinoside]",MCC at 24 h,in vitro,> 150 µM
same,Percent Apoptotic Nuclei (Ara C alone),"[1]; Ara C 100 μM, mean ± sem of 4 cultures",14.6 ± 0.9%
